# Literature values as cited in patent publication US9255091B2, “Benzothiazole-based pyridinium compounds” (The University of Montana, priority 2011, dated 2016).
# Biological target: AChE P-site (Homo sapiens (Human), UniProt P22303)
# Conditions: binds selectively to the AChE P-site; read-out: equilibrium dissociation constant
# Chain of AChE P-site (P22303 32-614 limits assumed): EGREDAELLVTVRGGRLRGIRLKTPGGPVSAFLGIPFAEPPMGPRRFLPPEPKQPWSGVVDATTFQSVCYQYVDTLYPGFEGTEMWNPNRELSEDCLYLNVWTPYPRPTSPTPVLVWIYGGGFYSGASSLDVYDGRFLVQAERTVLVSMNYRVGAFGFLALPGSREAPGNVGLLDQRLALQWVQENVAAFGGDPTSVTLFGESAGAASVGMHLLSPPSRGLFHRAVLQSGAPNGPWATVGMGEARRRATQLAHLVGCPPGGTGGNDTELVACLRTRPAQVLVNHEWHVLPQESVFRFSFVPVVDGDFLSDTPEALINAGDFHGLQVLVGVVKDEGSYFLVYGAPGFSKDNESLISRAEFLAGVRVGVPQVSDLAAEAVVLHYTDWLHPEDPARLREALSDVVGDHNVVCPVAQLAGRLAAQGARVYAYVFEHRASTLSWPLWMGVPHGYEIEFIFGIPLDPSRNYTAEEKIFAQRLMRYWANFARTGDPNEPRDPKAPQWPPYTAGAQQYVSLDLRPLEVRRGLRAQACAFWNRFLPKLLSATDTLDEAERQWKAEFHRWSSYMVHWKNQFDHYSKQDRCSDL
smiles,measurement,value
Cc1ccc2c(c1)sc(-c1ccc(N(C)C)cc1)[n+]2C [Thioflavin T],Kd,1 µM
